Converted amounts (≈) assume the structure as drawn. Where two headings read alike, the source gives them in different places.
Assays:
Type in all cases: cell-based
[1] = test system: Streptococcus pneumoniae 1095; conditions: microtiter broth dilution
Method in brief: (§1)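 Microtiter broth dilution; interpretation per NCCLS M100-S14; endpoint = MIC. Stock: 40 mg/ml in DMSO.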

[2] = test system: Streptococcus pneumoniae 1175; conditions: microtiter broth dilution
Method in brief: as §1

[3] = test system: Streptococcus pyogenes 1079; assay: MIC, microtiter broth dilution (NCCLS M100-S14), S. pyogenes 1079 (ermB)
Method in brief: as §1

[4] = test system: Streptococcus pneumoniae 1016; assay: MIC, microtiter broth dilution (NCCLS M100-S14), S. pneumoniae 1016 (susceptible)
Method in brief: as §1

[5] = test system: Haemophilus influenzae 1218; assay: MIC, microtiter broth dilution (NCCLS M100-S14), H. influenzae 1218 (susceptible)
Method in brief: as §1

[6] = S. pneumoniae 1016 (susceptible)
[7] = H. influenzae 1218 (susceptible)

SMILES	MIC S. pneumo. 1095 ([1]; Streptococcus pneumoniae 1095) [µg/mL]	MIC S. pneumo. 1175 ([2]; Streptococcus pneumoniae 1175) [µg/mL]	MIC S. pyogenes 1079 ([3]; Streptococcus pyogenes 1079) [µg/mL]	MIC S. pneumo. 1016 ([4]; Streptococcus pneumoniae 1016) [µg/mL]	MIC H. influenzae 1218 ([5]; Haemophilus influenzae 1218) [µg/mL]	MIC S. pneumo. 1095 ([1]; S. pneumoniae 1095 (ermB)) [µg/mL]	MIC S. pneumo. 1175 ([2]; S. pneumoniae 1175 (mefA)) [µg/mL]	MIC S. pyogenes 1079 ([3]; S. pyogenes 1079 (ermB)) [µg/mL]	MIC S. pneumo. 1016 [4, 6] [µg/mL]	MIC H. influenzae 1218 [5, 7] [µg/mL]
CCC1OC(=O)C(C)C(=O)C(C)C(OC2OC(C)CC(N(C)C)C2O)C(C)(OC)CC(C)C(=O)C(C)C2N(C3CN(S(=O)(=O)c4ccccc4S(C)(=O)=O)C3)C(=O)OC12C (stereo not drawn) [Example 3.25, 2-(methylsulfonyl) benzenesulfonyl]	<0.06	0.25 (≈ 0.282 µM)	>64.00	<0.06	1 (≈ 1.13 µM)					
CCOc1ccc(S(=O)(=O)N2CC(N3C(=O)OC4(C)C(CC)OC(=O)C(C)(F)C(=O)C(C)C(OC5OC(C)CC(N(C)C)C5O)C(C)(OC)CC(C)C(=O)C(C)C34)C2)cc1C#N (stereo not drawn) [Example 3.103, 3-descladinosyl-11,12-dideoxy-2-fluoro-6-O-methyl-3-oxo-12,11-(oxycarbonyl-(1-(3-cyano-4-ethoxybenzene-1-sulfonyl)-azetidin-3-yl)-imino)-erythromycin A]	<0.063	<0.063	0.5 (≈ 0.559 µM)	<0.063	2 (≈ 2.23 µM)					
CC[C@H]1OC(=O)[C@H](C)C(=O)[C@H](C)[C@@H](O[C@@H]2O[C@H](C)C[C@H](N(C)C)[C@H]2O)[C@](C)(OC)C[C@@H](C)C(=O)[C@H](C)[C@H]2N(CC3(O)CN(C(=O)c4nc5ccccc5[nH]4)C3)C(=O)O[C@]12C.O=CO [7.28]						<0.06	0.25	>64.00	<0.06	2
CC[C@H]1OC(=O)[C@H](C)C(=O)[C@H](C)[C@@H](O[C@@H]2O[C@H](C)C[C@H](N(C)C)[C@H]2O)[C@](C)(OC)C[C@@H](C)C(=O)[C@H](C)[C@H]2N(CC3(O)CN(C(=O)c4ccc5cccnc5n4)C3)C(=O)O[C@]12C [7.17]						<0.06	0.5 (≈ 0.585 µM)	>64.00	<0.06	1 (≈ 1.17 µM)
CCC1OC(=O)C(C)C(=O)C(C)C(OC2OC(C)CC(N(C)C)C2O)C(C)(OC)CC(C)C(=O)C(C)C2N(CC3CCCN3C(=O)c3cccc4cccnc34)C(=O)OC12C (stereo not drawn) [12.10]						0.5 (≈ 0.588 µM)	2 (≈ 2.35 µM)	>64.00	<0.06	8 (≈ 9.4 µM)
CCC1OC(=O)C(C)C(=O)C(C)C(OC2OC(C)CC(N(C)C)C2O)C(C)(OC)CC(C)C(=O)C(C)C2N(CC3CCCN3C(=O)c3cc4cccnc4[nH]3)C(=O)OC12C (stereo not drawn) [10.55]						<0.06	<0.06	32 (≈ 38.1 µM)	<0.06	1 (≈ 1.19 µM)
CC[C@H]1OC(=O)[C@H](C)C(=O)[C@H](C)[C@@H](O[C@@H]2O[C@H](C)C[C@H](N(C)C)[C@H]2O)[C@](C)(OC)C[C@@H](C)C(=O)[C@H](C)[C@H]2N(CC3(O)CN(C(=O)c4cc5ccccn5n4)C3)C(=O)O[C@]12C.O=CO [7.30]						0.25	0.25	>64.00	<0.06	8
CCC1OC(=O)C(C)C(=O)C(C)C(OC2OC(C)CC(N(C)C)C2O)C(C)(OC)CC(C)C(=O)C(C)C2N(C3CN(Cc4ccnc5ccc(OC)cc45)C3)C(=O)OC12C (stereo not drawn) [Example 1.90, 3-descladinosyl-11,12-dideoxy-4-O-methyl-3-oxo-12,11-(oxycarbonyl-(1-(6-methoxyquinoline-4-methyl)-azetidin-3-yl)-imino)-erythromycin A]	0.125 (≈ 0.149 µM)	<0.063	2 (≈ 2.38 µM)	<0.063	2 (≈ 2.38 µM)					
CCC1OC(=O)C(C)C(=O)C(C)C(OC2OC(C)CC(N(C)C)C2O)C(C)(OC)CC(C)C(=O)C(C)C2N(C3CN(S(=O)(=O)c4ccc(-n5cccn5)nc4)C3)C(=O)OC12C (stereo not drawn) [Example 3.16, 3-descladinosyl-11,12-dideoxy-6-O-methyl-3-oxo-12,11-(oxycarbonyl-(1-(6-(1H-pyrazol-1-yl)pyridine-3-sulfonyl)-azetidin-3-yl)-imino)-erythromycin A]	<0.06	<0.06	1 (≈ 1.14 µM)	<0.06	0.5 (≈ 0.571 µM)					
CCOc1ccc(S(=O)(=O)N2CC(N3C(=O)OC4(C)C(CC)OC(=O)C(C)C(=O)C(C)C(OC5OC(C)CC(N(C)C)C5O)C(C)(OC)CC(C)C(=O)C(C)C34)C2)cc1C#N (stereo not drawn) [Example 3.99, 3-descladinosyl-11,12-dideoxy-6-O-methyl-3-oxo-12,11-(oxycarbonyl-(1-(3-cyano-4-ethoxybenzene-1-sulfonyl)-azetidin-3-yl)-imino)-erythromycin A]	<0.063	<0.063	0.25 (≈ 0.285 µM)	<0.063	1.41 (≈ 1.61 µM)					
CC[C@H]1OC(=O)[C@H](C)C(=O)[C@H](C)[C@@H](O[C@@H]2O[C@H](C)C[C@H](N(C)C)[C@H]2O)[C@](C)(OC)C[C@@H](C)C(=O)[C@H](C)[C@H]2N(CC3(O)CN(C(=O)c4cncc5ccccc45)C3)C(=O)O[C@]12C [7.23]						0.5 (≈ 0.586 µM)	0.5 (≈ 0.586 µM)	>64.00	<0.06	2 (≈ 2.34 µM)
CCC1OC(=O)C(C)C(=O)C(C)C(OC2OC(C)CC(N(C)C)C2O)C(C)(OC)CC(C)C(=O)C(C)C2N(CC3CCCN3C(=O)c3cc4cccnc4nc3C(F)(F)F)C(=O)OC12C (stereo not drawn) [10.40]						<0.06	<0.06	>64.00	<0.06	2 (≈ 2.17 µM)
CC[C@H]1OC(=O)[C@H](C)C(=O)[C@H](C)[C@@H](O[C@@H]2O[C@H](C)C[C@H](N(C)C)[C@H]2O)[C@](C)(OC)C[C@@H](C)C(=O)[C@H](C)[C@H]2N(C[C@H]3CCCN3C(=O)c3cccc4ncsc34)C(=O)O[C@]12C.O=CO [10.22]						0.12	2	64	<0.06	2.5
CC[C@H]1OC(=O)[C@H](C)C(=O)[C@H](C)[C@@H](O[C@@H]2O[C@H](C)C[C@H](N(C)C)[C@H]2O)[C@](C)(OC)C[C@@H](C)C(=O)[C@H](C)[C@H]2N(CC3(O)CN(S(=O)(=O)c4c(C)n[nH]c4C)C3)C(=O)O[C@]12C [7.15]						>64.00	4 (≈ 4.67 µM)	>64.00	<0.06	2 (≈ 2.34 µM)
CCC1OC(=O)C(C)C(=O)C(C)C(OC2OC(C)CC(N(C)C)C2O)C(C)(OC)CC(C)C(=O)C(C)C2N(CC3CCN(Cc4cccnc4OC)CC3)C(=O)OC12C (stereo not drawn) [15.06]						>64.00	0.5 (≈ 0.602 µM)	>64.00	<0.06	32 (≈ 38.5 µM)
CCC1OC(=O)C(C)C(=O)C(C)C(OC2OC(C)CC(N(C)C)C2O)C(C)(OC)CC(C)C(=O)C(C)C2N(CC3C4CN(Cc5cccnc5)CC43)C(=O)OC12C (stereo not drawn) [16.04]						3.12 (≈ 3.9 µM)	>100.00	>100.00	0.03 (≈ 0.0375 µM)	0.5 (≈ 0.626 µM)
CCC1OC(=O)C(C)C(=O)C(C)C(OC2OC(C)CC(N(C)C)C2O)C(C)(OC)CC(C)C(=O)C(C)C2N(CC3CN(Cc4cccc5nccnc45)C3)C(=O)OC12C (stereo not drawn) [4.17]	0.5 (≈ 0.607 µM)	0.12 (≈ 0.146 µM)	64 (≈ 77.7 µM)	<0.06	0.25 (≈ 0.303 µM)					
CCC1OC(=O)C(C)C(=O)C(C)C(OC2OC(C)CC(N(C)C)C2O)C(C)(OC)CC(C)C(=O)C(C)C2N(C3CN(Cc4cnc5ncccc5c4)C3)C(=O)OC12C (stereo not drawn) [Example 1.17, (1,8-naphthyridin-3-yl)methyl]	<0.06	0.25 (≈ 0.309 µM)	>64.00	<0.06	0.12 (≈ 0.148 µM)					
CCC1OC(=O)C(C)C(=O)C(C)C(OC2OC(C)CC(N(C)C)C2O)C(C)(OC)CC(C)C(=O)C(C)C2N(CC3CCCN3Cc3cccc(OC)n3)C(=O)OC12C (stereo not drawn) [12.01]						2 (≈ 2.45 µM)	1 (≈ 1.22 µM)	>64.00	<0.06	8 (≈ 9.79 µM)
CCC1OC(=O)C(C)C(=O)C(C)C(OC2OC(C)CC(N(C)C)C2O)C(C)(OC)CC(C)C(=O)C(C)C2N(C3CN(S(=O)(=O)c4ccc5nn[nH]c5c4)C3)C(=O)OC12C (stereo not drawn) [Example 3.57]	<0.06	8 (≈ 9.42 µM)	4 (≈ 4.71 µM)	<0.06	1 (≈ 1.18 µM)					
CC[C@H]1OC(=O)[C@H](C)[C@@H](OC(=O)N2CCCC2)[C@H](C)[C@@H](O[C@@H]2O[C@H](C)C[C@H](N(C)C)[C@H]2O)[C@](C)(OC)C[C@@H](C)C(=O)[C@H](C)[C@H]2N(CC3CN(C(=O)c4cccc5cccnc45)C3)C(=O)O[C@]12C [Example 5.07, 2-R^2: quinoline-8-carboxyl; R^#: pyrrolidin-1-yl]	0.25 (≈ 0.267 µM)	<0.06	16 (≈ 17.1 µM)	<0.06	4 (≈ 4.27 µM)					

From patent US7462600B2, “Macrolides” (Pfizer Inc, priority 2004, dated 2008)
